Data published in publication PMC9610285 (Pharmaceutics, 2022).

Experiments:
[1] = cited from earlier work
[2] = healthy volunteers, 1 mg single oral dose
[3] = cited from earlier work; remark: listed apart in the source

In the case of `C#CCN[C@@H]1CCc2ccccc21` [rasagiline, Rasagiline], the water solubility [1] is given as “poorly water-soluble”, the “adverse drug reactions (AEs causally related to rasagiline intake)” value [2] is given as “Only one AE (headache)” and the “capacity to cross the blood-brain barrier” value [3] is given as “high capacity to cross the blood-brain barrier”. For the same compound, the “elimination half-life (t1/2)” value [3] was 36 to 120 min, the oral bioavailability [3] was 36% and the plasma protein binding [3] was 60–70%. For the same compound, the urine elimination [3] was 62.6% and the “tmax (time to reach Cmax)” value ([3]; oral tablet) was “approximately 0.5 h”.
